One experiment deals with T1, Taspase1 (Homo sapiens, UniProt Q9H6P5).
T1 sequence (Q9H6P5 1-233 limits assumed): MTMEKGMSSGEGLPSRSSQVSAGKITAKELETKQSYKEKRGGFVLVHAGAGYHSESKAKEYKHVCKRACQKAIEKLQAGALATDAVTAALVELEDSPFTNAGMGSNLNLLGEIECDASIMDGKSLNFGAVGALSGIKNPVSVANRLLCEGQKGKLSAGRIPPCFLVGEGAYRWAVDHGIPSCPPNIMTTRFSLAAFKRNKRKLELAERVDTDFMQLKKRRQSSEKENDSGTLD
Briefly: FRET-based Taspase1 proteolytic reporter (FRPR) assay. Type of experiment: biochemical. The settings on record: for EC50: Maybridge library screen, dose-response.

The target in experiment [1] is T2, recombinant Taspase1 (rTaspase1) (Homo sapiens, UniProt Q9H6P5).
T2 sequence (Q9H6P5 1-233 limits assumed): T1 sequence (Q9H6P5 1-233 limits assumed)
The experiment is described as follows: Taspase1-MLL in vitro cleavage assay (IVTT 35S methionine labeled p75MLL reporter, SDS-PAGE, autoradiography). Type of experiment: biochemical. The settings on record: for Inhibition of Taspase1-mediated p75MLL cleavage (in words): indicated concentrations, 30 minutes pretreatment; for IC50: rTaspase1 pretreated 30 minutes at room temperature, then p75MLL reporter 30 minutes at 30° C., read-out: IC50 of Taspase1 inhibition (p75MLL cleavage); for Effect of increasing pretreatment time on Taspase1 inhibition: 5 μM, pre-incubation for increasing periods of time; for Inhibition of Taspase1-mediated p75MLL cleavage at 1 mM: 1 mM (up to 1 mM).

The test system of experiment [2] is SV40-transformed mouse embryonic fibroblasts (MEFs). Briefly: MTT assay of SV40-transformed MEFs, wild-type versus Taspase1-/-. The settings on record: 2 days, relative cell number. Type of experiment: cell-based.
Another experiment concerns NCI60 cell lines. The settings on record: NCI DTP database; cited from earlier work.
The target in experiment [3] is Recombinant Caspase8 (rCaspase8) (Homo sapiens, UniProt Q14790). The experiment is described as follows: Caspase8-BID in vitro cleavage assay (IVTT 35S methionine labeled p22Bid reporter). Type of experiment: biochemical. The settings on record: 1 mM, tertiary screen.
Another experiment deals with autotoxin (Homo sapiens, UniProt Q13822). The settings on record: cited from earlier work.

Entries after “also recorded” stand apart in the source; their conditions may differ. Residues, ends and D or L forms follow the SMILES beside them. *: point of attachment. DNP = 2,4-dinitrophenyl quenching group; X1 = CS(=O)(=O)/C=C/[C@H](CC(=O)O)N*; MCA = fluorogenic coumarin group

Chain of Recombinant Caspase8 (rCaspase8) (Q14790 217-374 limits assumed, species assumed): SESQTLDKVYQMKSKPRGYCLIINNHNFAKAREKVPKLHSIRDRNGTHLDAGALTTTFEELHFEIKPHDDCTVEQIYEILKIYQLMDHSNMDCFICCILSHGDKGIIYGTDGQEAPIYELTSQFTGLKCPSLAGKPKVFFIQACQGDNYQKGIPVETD

As for `O=C(NNC(=S)Nc1cccc(C(F)(F)F)c1)c1sc2ccccc2c1Cl` [BTB 00807], the EC50 at Taspase1 turned out to be 9.9 µM.

In the case of `S=C(NNC(=S)NC1CC2C=CC1C2)Nc1ccc(Br)c(Cl)c1` (centres unmarked) [CD 02506], the EC50 at Taspase1 is 1.5 µM.

Turning to `O=C(CO/N=C/c1ccc(Cl)cc1Cl)NNCCC(=S)Nc1cc(Cl)ccc1Cl` [CD 06082], on Taspase1, the EC50 was 3.3 µM.

For `Cc1ccc(-c2nc(NS(=O)(=O)c3cccc4nonc34)sc2C)cc1Cl` [HTS 01888], the EC50 at Taspase1 amounted to 2.2 µM.

`Cc1ccc(S(=O)(=O)NC(=O)Nc2nc(-c3ccc(C)c(Cl)c3)c(C)s2)cc1` [HTS 06900]: the EC50 at Taspase1 was 4 µM.

Turning to `CC[C@H](C)[C@H](NC(=O)[C@H](CCCCN)NC(C)=O)C(=O)N[C@@H](CO)C(=O)N[C@@H](CCC(N)=O)C(=O)N[C@@H](CC(C)C)C(=O)N[C@H](C=O)CC(=O)O` [ISQLD-aldehyde] (Ac-KISQLD-aldehyde), the “Inhibition of Taspase1-mediated p75MLL cleavage (in words)” value in experiment [1] was “minimal activity”.

As to `CC[C@H](C)[C@H](NC(C)=O)C(=O)N[C@@H](CO)C(=O)N[C@@H](CCC(N)=O)C(=O)N[C@@H](CC(C)C)C(=O)N[C@H](/C=C/S(C)(=O)=O)CC(=O)O` [ISQLD-vinyl sulfone] (Ac-ISQL-X1; N-terminus and C-terminus assumed), the 50% inhibitory concentration (IC50) in experiment [1] was 29.4 µM.

On to `O=[As](O)(O)c1ccc(Cc2ccc([As](=O)(O)O)cc2)cc1` [NSC48300, [4-[(4-arsonophenyl)methyl]phenyl]arsonic acid], for which the Ki at Taspase1 (100 nM rTaspase1, varying concentrations of FRPR, read-out: KI of Taspase1 inhibition) turned out to be 4.22 ± 0.46 µM. At Taspase1 (varying concentrations of FRPR and inhibitor), the “Mode of Taspase1 inhibition” value is “non-competitive inhibition”. Further, the “Susceptibility of wild-type versus Taspase1-/- SV40-transformed MEFs” value in experiment [2] was “more susceptible”. Further, in the experiment on NCI60 cell lines, the “Growth inhibition in the NCI60 screen” value is “distinct pattern of growth inhibition”. Besides, the “Inhibition of Caspase8-mediated p22Bid cleavage” value in experiment [3] is listed as “only targets Taspase1; also recorded: not Caspase8”. On autotoxin, the Inhibition of autotoxin entry is given as “inhibit autotoxin”. In experiment [1], the “Effect of increasing pretreatment time on Taspase1 inhibition” value is reported as “did not enhance the inhibition”, the “Inhibition of Taspase1-mediated p75MLL cleavage at 1 mM” value is “inhibited Taspase1” and the half-maximal inhibitory concentration (IC50) was roughly 7.5 µM. Besides, the “Effect of increasing pretreatment time on Taspase1 inhibition” value in experiment [1] (listed as TASPIN-NSC48300) was “did not exhibit enhanced inhibition”. In addition, the “Inhibition of Taspase1-mediated p75MLL cleavage at 10 μM” value in experiment [1] (10 μM) is reported as “completely inhibited”.

In turn, `Cc1ccc(NC(=S)NNC(=O)Cn2nnc(-c3cccc(Cl)c3Cl)n2)cc1Cl` [RJF 02020] came in with an EC50 at Taspase1 of 3.9 µM.

In turn, `CC(C)(C)c1cc(C(=O)NNC(=S)Nc2ccccc2)n(Cc2ccc(Cl)cc2Cl)n1` [SPB 08132] came in with an EC50 at Taspase1 of 5.9 µM.

For `CC(C)C[C@H](NC(=O)[C@H](Cc1ccccc1)NC(=O)c1cnccn1)B(O)O` [bortezomib], the “Inhibition of Taspase1-mediated p75MLL cleavage (in words)” value in experiment [1] is “no activity”.

With “MCA-KISQLDGVDD-DNP ({MCA}-KISQLDGVDD-{DNP}) [FRPR]”, the Km with Taspase1 (rTaspase1 at room temperature, read-out: apparent KM of the reporter substrate) amounted to 9.06 ± 2.8 µM.

Regarding arsenic acid, the “Inhibition of Taspase1-mediated p75MLL cleavage at 1 mM” value in experiment [1] is listed as “no inhibition”.

Source of the values: US8501811B2, “TASPASE1 inhibitors and their uses” (Washington University, priority 2010, dated 2013).
